{"source": "patent US11033518B2", "about": "“Pharmaceutical composition containing niclosamide for treating axin-GSK3 interaction-related diseases” (BAOBAB PHARM CO., LTD., priority 2017, dated 2021)", "key": {"recombinant GSK3 beta": {"molecular_target": "T1, recombinant GSK3 beta (Homo sapiens, UniProt P49841)", "T1 construct": "His; made in house; host or cells: Sf9 insect cells; This is inferred: 'the purified recombinant GSK3 beta' points back to the protein of b91", "T1 sequence (P49841 whole entry)": "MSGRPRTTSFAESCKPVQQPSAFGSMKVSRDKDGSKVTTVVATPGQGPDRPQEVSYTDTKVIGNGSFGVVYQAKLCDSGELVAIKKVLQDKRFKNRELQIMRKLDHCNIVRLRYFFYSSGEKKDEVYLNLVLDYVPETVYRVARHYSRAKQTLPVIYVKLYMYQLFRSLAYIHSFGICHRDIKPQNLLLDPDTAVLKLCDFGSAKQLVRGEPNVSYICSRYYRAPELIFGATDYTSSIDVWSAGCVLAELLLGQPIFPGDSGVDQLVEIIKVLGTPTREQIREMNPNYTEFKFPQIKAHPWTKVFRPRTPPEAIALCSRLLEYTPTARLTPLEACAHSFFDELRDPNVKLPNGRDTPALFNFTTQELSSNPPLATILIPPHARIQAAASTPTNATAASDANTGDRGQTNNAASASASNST", "assay": "Surface plasma resonance (SPR) analysis", "assay_type": "binding", "procedure": "In order to confirm whether niclosamide directly binds to GSK3, surface plasma resonance (SPR) analysis was conducted.\nSPR was carried out using ProteOn™ XPR36 Protein Interaction Array system (Bio-Rad Laboratories, Inc., CA, USA), and the purified recombinant GSK3 beta was immobilized on ProteOn GLH sensor chip. The niclosamide or 19-mer wild-type Axin peptide or mutant peptide (VEPQKAAEEAIHRAEAVQR, mutation underlined) was diluted with phosphate-buffered saline+Tween 20+1% DMSO at different concentrations respectively, and then was flowed into the chip at a rate of 100 μl/min, and the result was analyzed by ProteOn Manager Software 2.0 using the standard Langmuir models for fitting kinetic data. The complex formation ratio was represented by an association constant (ka, in the unit of M−1s−1), and the complex decrement ratio was represented by a dissociation constant (kd, in the unit of s−1) as the following equilibrium equation 1.\nThe high-affinity interaction is represented by the low dissociation constant, and gradual cognition and binding with interactant (rapid “on rate,” or high ka), and stability of complex formation (slow “off rate,” or low kd) are equal to the equation KD=kd/ka."}, "[1]": {"settings": "relative to paclitaxel; cited from earlier work"}}, "note": "Read-outs that look alike come from different tables or passages of the source. Ends that are not written are not given here.", "data": [{"compound": "CC[C@H](C)[C@H](NC(=O)[C@H](CC(C)C)NC(=O)[C@H](CCC(=O)O)NC(=O)[C@H](CCC(=O)O)NC(=O)[C@H](C)NC(=O)[C@H](Cc1ccccc1)NC(=O)[C@H](CCCCN)NC(=O)[C@H](CCC(N)=O)NC(=O)[C@@H]1CCCN1C(=O)[C@H](CCC(=O)O)NC(=O)[C@@H](N)C(C)C)C(=O)N[C@@H](Cc1c[nH]cn1)C(=O)N[C@@H](CCCNC(=N)N)C(=O)N[C@@H](CC(C)C)C(=O)N[C@@H](CCC(=O)O)C(=O)N[C@@H](C)C(=O)N[C@H](C(=O)N[C@@H](CCC(N)=O)C(=O)N[C@@H](CCCNC(=N)N)C(=O)O)C(C)C", "note": "[wild-type Axin peptide, VEPQKFAEELIHRLEAVQR]", "values": [{"measurement": "Kd", "setting": "recombinant GSK3 beta; immobilized GSK3 beta, read-out: Equilibrium dissociation constant, KD", "result": 35, "unit": "µM"}]}, {"compound": "VEPQKAAEEAIHRAEAVQR [mutant Axin peptide, VEPQKAAEEAIHRAEAVQR]", "values": [{"measurement": "Kd", "setting": "recombinant GSK3 beta; immobilized GSK3 protein, read-out: binding to GSK3 (could not bind up to)", "result": "> 100", "unit": "µM"}]}, {"compound": "CC[C@@H](C(=O)[C@@H](C)[C@@H](O)[C@H](C)[C@@H]1O[C@@H]([C@@H](CC)C(=O)O)CC[C@@H]1C)[C@H]1O[C@]2(C=C[C@@H](O)[C@]3(CC[C@@](C)([C@H]4CC[C@](O)(CC)[C@H](C)O4)O3)O2)[C@H](C)C[C@@H]1C", "note": "[Salinomycin]", "values": [{"measurement": "potency in inhibiting cancer differentiation in proportion to paclitaxel", "setting": "[1]", "result": "up to 100 times"}]}]}
